The record followed here is patent US9156829B2, “Cycloalkyl and heterocycloalkyl compounds as orexin receptor antagonists” (Takeda Pharmaceutical Company Limited, priority 2014, dated 2015).

Assay [1] has as its target human orexin receptor 1 (Homo sapiens (Human), UniProt O43613). Kind of assay: Orexin antagonist activity, intracellular calcium FLIPR assay, RBL-2H3 cells expressing human orexin receptor 1. The format is cell-based. The following applies: RBL-2H3 cells stably expressing human orexin receptor 1; orexin-A at approx. 80% maximal response; compound added 15 minutes before; read-out: Human Orexin1R IC50.

The target in assay [2] is human orexin receptor 2 (Homo sapiens (Human), UniProt O43614). The assay is described as follows: Orexin antagonist activity, intracellular calcium FLIPR assay, RBL-2H3 cells expressing human orexin receptor 2. The format is cell-based. The settings on record: RBL-2H3 cells stably expressing human orexin receptor 2; orexin-A at approx. 80% maximal response; compound added 15 minutes before; read-out: Human Orexin2R IC50. (Calcium flux is commonly read through the fluorescence of an indicator in the cells.)
Sequence of human orexin receptor 2 (O43614 whole entry): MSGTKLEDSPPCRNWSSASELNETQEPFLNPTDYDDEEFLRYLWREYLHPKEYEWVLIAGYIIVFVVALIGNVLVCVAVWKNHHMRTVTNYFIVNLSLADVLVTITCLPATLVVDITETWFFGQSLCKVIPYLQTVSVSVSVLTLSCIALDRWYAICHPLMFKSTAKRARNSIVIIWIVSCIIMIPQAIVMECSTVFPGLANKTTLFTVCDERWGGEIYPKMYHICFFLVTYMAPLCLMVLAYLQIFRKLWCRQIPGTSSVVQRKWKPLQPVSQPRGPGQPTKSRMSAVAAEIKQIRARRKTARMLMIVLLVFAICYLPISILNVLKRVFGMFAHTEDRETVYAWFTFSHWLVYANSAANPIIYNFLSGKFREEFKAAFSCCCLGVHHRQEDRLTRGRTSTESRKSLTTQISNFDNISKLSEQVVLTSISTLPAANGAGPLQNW

Structures are written as SMILES.

Sequence of human orexin receptor 1 (O43613 whole entry): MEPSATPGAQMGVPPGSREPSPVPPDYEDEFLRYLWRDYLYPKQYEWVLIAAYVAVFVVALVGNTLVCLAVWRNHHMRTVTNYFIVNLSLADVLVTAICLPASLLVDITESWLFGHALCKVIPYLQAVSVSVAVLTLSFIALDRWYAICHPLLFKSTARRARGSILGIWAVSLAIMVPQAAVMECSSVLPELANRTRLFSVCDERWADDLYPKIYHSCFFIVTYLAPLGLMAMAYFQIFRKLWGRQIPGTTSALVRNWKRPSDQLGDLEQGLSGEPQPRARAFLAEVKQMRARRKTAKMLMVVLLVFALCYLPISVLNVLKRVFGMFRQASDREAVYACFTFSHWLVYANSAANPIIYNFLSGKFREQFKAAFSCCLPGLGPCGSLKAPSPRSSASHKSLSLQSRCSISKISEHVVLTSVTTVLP

The IC50 is the midpoint of a concentration-inhibition curve. As to `O=C(NC1CCCC1Cc1cc(C(F)(F)F)ccn1)c1ccccc1-n1nccn1` (single isomer, unassigned) [Example 23, 2-(2H-1,2,3-Triazol-2-yl)-N-(2-{[4-(trifluoromethyl)pyridin-2-yl]methyl}cyclopentyl)benzamide], the half-maximal inhibitory concentration (IC50) stood at 792 nM in assay [1] and 3800 nM in assay [2].
As for `O=C(NC1CCCC1Cc1ccc(C(F)(F)F)cn1)c1ccccc1-n1nccn1` (single isomer, unassigned) [Example 25, 2-(2H-1,2,3-Triazol-2-yl)-N-(2-{[5-(trifluoromethyl)pyridin-2-yl]methyl}cyclopentyl)benzamide], the IC50 is 472 nM in assay [1] and over 10000 nM in assay [2].
The corresponding values for `CC1(Nc2ncc(C(F)(F)F)cn2)CCCC1NC(=O)c1ccccc1-n1nccn1` (single isomer, unassigned) [Example 94, N-(2-Methyl-2-{[5-(trifluoromethyl)pyrimidin-2-yl]amino}cyclopentyl)-2-(2H-1,2,3-triazol-2-yl)benzamide] are 28 nM and over 10000 nM.
Take `O=C(NC1CC(F)(F)CC1Nc1ncc(C(F)(F)F)cn1)c1ccccc1-n1nccn1` (single isomer, unassigned) [Example 127, N-(4,4-Difluoro-2-{[5-(trifluoromethyl)pyrimidin-2-yl]amino}cyclopentyl)-2-(2H-1,2,3-triazol-2-yl)benzamide]: the values for the IC50 in assay [1] and in assay [2] were 68 nM and over 10000 nM, respectively.
On to `O=C(NC1CC(F)(F)CC1Nc1ccc(C(F)(F)F)cn1)c1ccccc1-n1nccn1` (single isomer, unassigned) [Example 128, N-(4,4-Difluoro-2-{[5-(trifluoromethyl)pyridin-2-yl]amino}cyclopentyl)-2-(2H-1,2,3-triazol-2-yl)benzamide], for which the IC50 in assay [1] is 33 nM; in assay [2], over 10000 nM.
The corresponding values for `O=C(NC1CC(F)(F)CC1Nc1ccc(C(F)(F)F)cn1)c1ccccc1-n1nccn1` (single isomer, unassigned) [Example 129, N-(4,4-Difluoro-2-{[5-(trifluoromethyl)pyridin-2-yl]amino}cyclopentyl)-2-(2H-1,2,3-triazol-2-yl)benzamide] are 633 nM and 8750 nM.
Turning to `O=C(NC1CC(F)(F)CC1Nc1cnc(C(F)(F)F)cn1)c1ccccc1-n1nccn1` (single isomer, unassigned) [Example 130, N-(4,4-Difluoro-2-{[5-(trifluoromethyl)pyrazin-2-yl]amino}cyclopentyl)-2-(2H-1,2,3-triazol-2-yl)benzamide], the IC50 in assay [1] was 77 nM.
Turning to `COc1cccc(OC)c1C(=O)N[C@H]1CCC[C@@H]1Nc1ccc(C(F)(F)F)cn1` [Example 1, 2,6-Dimethoxy-N-[(1S,2S)-2-{[5-(trifluoromethyl)pyridin-2-yl]amino}cyclopentyl]benzamide], the IC50 in assay [1] was 240 nM; in assay [2], over 10000 nM.
The corresponding values for `COc1cccc(OC)c1C(=O)N[C@H]1CCC[C@@H]1Nc1ncc(C(F)(F)F)cn1` [Example 2, 2,6-Dimethoxy-N-[(1S,2S)-2-{[5-(trifluoromethyl)pyrimidin-2-yl]amino}cyclopentyl]benzamide] are 870 nM and over 10000 nM.
The corresponding values for `Cc1ccc(-n2nccn2)c(C(=O)N[C@H]2CCC[C@@H]2Nc2ncc(C(F)(F)F)cn2)c1` [Example 3, 5-Methyl-2-(2H-1,2,3-triazol-2-yl)-N-[(1S,2S)-2-{[5-(trifluoromethyl)pyrimidin-2-yl]amino}cyclopentyl]benzamide] are 58 nM and over 10000 nM.
Regarding `CCc1cnc(N[C@H]2CCC[C@@H]2NC(=O)c2cc(C)ccc2-n2nccn2)nc1` [Example 4, N-[(1S,2S)-2-[(5-Ethylpyrimidin-2-yl)amino]cyclopentyl]-5-methyl-2-(2H-1,2,3-triazol-2-yl)benzamide], the IC50 in assay [1] is 520 nM; in assay [2], over 10000 nM.
On to `Cc1ccc(-n2nccn2)c(C(=O)N[C@H]2CCC[C@@H]2Nc2ccc(C(F)(F)F)cn2)c1` [Example 6, 5-Methyl-2-(2H-1,2,3-triazol-2-yl)-N-[(1S,2S)-2-{[5-(trifluoromethyl)pyridin-2-yl]amino}cyclopentyl]benzamide], for which the figures for the IC50 in assay [1] and in assay [2] were 51 nM and over 10000 nM, respectively.
Taken in the same sequence, the figures for `Cc1ccc(-n2nccn2)c(C(=O)N[C@H]2CCC[C@@H]2Nc2cnc(C(F)(F)F)cn2)c1` [Example 7, 5-Methyl-2-(2H-1,2,3-triazol-2-yl)-N-[(1S,2S)-2-{[5-(trifluoromethyl)pyrazin-2-yl]amino}cyclopentyl]benzamide] were 51 nM and over 10000 nM.
As to `Cc1noc(-c2ccccc2C(=O)N[C@H]2CCC[C@@H]2Nc2ccc(C(F)(F)F)cn2)n1` [Example 8, 2-(3-Methyl-1,2,4-oxadiazol-5-yl)-N-[(1S,2S)-2-{[5-(trifluoromethyl)pyridin-2-yl]amino}cyclopentyl]benzamide], the IC50 is 110 nM in assay [1] and over 10000 nM in assay [2].
`Cc1ccc(-n2nccn2)c(C(=O)N[C@H]2CCC[C@@H]2Nc2cnc(Cl)cn2)c1` [Example 9, N-[(1S,2S)-2-[(5-Chloropyrazin-2-yl)amino]cyclopentyl]-5-methyl-2-(2H-1,2,3-triazol-2-yl)benzamide]: the IC50 is 340 nM in assay [1] and over 10000 nM in assay [2].
Taken in the same sequence, the figures for `O=C(N[C@H]1CCC[C@@H]1Nc1ccc(C(F)(F)F)cn1)c1cc(F)ccc1-n1nccn1` [Example 10, 5-Fluoro-2-(2H-1,2,3-triazol-2-yl)-N-[(1S,2S)-2-{[5-(trifluoromethyl)pyridin-2-yl]amino}cyclopentyl]benzamide] were 59 nM and over 10000 nM.
The corresponding values for `O=C(N[C@H]1CCC[C@@H]1Nc1ccc(C(F)(F)F)cn1)c1ccccc1-n1cccn1` [Example 11, 2-(1H-Pyrazol-1-yl)-N-[(1S,2S)-2-{[5-(trifluoromethyl)pyridin-2-yl]amino}cyclopentyl]benzamide] are 170 nM and over 10000 nM.
The corresponding values for `O=C(N[C@H]1CCC[C@@H]1Nc1ccc(C(F)(F)F)cn1)c1ccccc1-n1nccn1` [Example 12, 2-(2H-1,2,3-Triazol-2-yl)-N-[(1S,2S)-2-{[5-(trifluoromethyl)pyridin-2-yl]amino}cyclopentyl]benzamide] are 65 nM and over 10000 nM.
`O=C(N[C@H]1CCC[C@@H]1Nc1ccc(C(F)(F)F)cn1)c1ccccc1-c1ncccn1` [Example 13, 2-(Pyrimidin-2-yl)-N-[(1S,2S)-2-{[5-(trifluoromethyl)pyridin-2-yl]amino}cyclopentyl]benzamide]: the figures for the IC50 in assay [1] and in assay [2] were 99 nM and over 10000 nM, respectively.
With `O=C(N[C@H]1CCC[C@@H]1Nc1ccc(C(F)(F)F)cn1)c1cc(F)ccc1-c1ncccn1` [Example 14, 5-Fluoro-2-(pyrimidin-2-yl)-N-[(1S,2S)-2-{[5-(trifluoromethyl)pyridin-2-yl]amino}cyclopentyl]benzamide], the IC50 was 89 nM in assay [1] and over 10000 nM in assay [2].
In the case of `Cc1noc(-c2ccccc2C(=O)N[C@H]2CCC[C@@H]2Nc2cnc(C(F)(F)F)cn2)n1` [Example 15, 2-(3-Methyl-1,2,4-oxadiazol-5-yl)-N-[(1S,2S)-2-{[5-(trifluoromethyl)pyrazin-2-yl]amino}cyclopentyl]benzamide], the figures for the IC50 in assay [1] and in assay [2] were 49 nM and over 10000 nM, respectively.
As for `Cc1noc(-c2ccccc2C(=O)N[C@H]2CCC[C@@H]2Nc2ncc(C(F)(F)F)cn2)n1` [Example 16, 2-(3-Methyl-1,2,4-oxadiazol-5-yl)-N-[(1S,2S)-2-{[5-(trifluoromethyl)pyrimidin-2-yl]amino}cyclopentyl]benzamide], the IC50 was 54 nM in assay [1] and over 10000 nM in assay [2].
For `O=C(N[C@H]1CCC[C@@H]1Nc1cnc(C(F)(F)F)cn1)c1ccccc1-n1nccn1` [Example 17, 2-(2H-1,2,3-Triazol-2-yl)-N-[(1S,2S)-2-{[5-(trifluoromethyl)pyrazin-2-yl]amino}cyclopentyl]benzamide], the IC50 in assay [1] was 53 nM; in assay [2], over 10000 nM.
For the molecule `O=C(N[C@H]1CCC[C@@H]1Nc1ncc(C(F)(F)F)cn1)c1ccccc1-n1nccn1` [Example 18, 2-(2H-1,2,3-Triazol-2-yl)-N-[(1S,2S)-2-{[5-(trifluoromethyl)pyrimidin-2-yl]amino}cyclopentyl]benzamide], the figures for the IC50 in assay [1] and in assay [2] were 57 nM and over 10000 nM, respectively.
Taken in the same sequence, the figures for `O=C(N[C@H]1CCC[C@H]1Oc1cnc(C(F)(F)F)cn1)c1ccccc1-n1nccn1` [Example 19, 2-(2H-1,2,3-Triazol-2-yl)-N-[(1S,2R)-2-{[5-(trifluoromethyl)pyrazin-2-yl]oxy}cyclopentyl]benzamide] were 757 nM and 6100 nM.
Taken in the same sequence, the figures for `O=C(N[C@H]1CCC[C@@H]1Oc1cc(C(F)(F)F)ccn1)c1ccccc1-n1nccn1` [Example 20, 2-(2H-1,2,3-Triazol-2-yl)-N-[(1S,2S)-2-{[4-(trifluoromethyl)pyridin-2-yl]oxy}cyclopentyl]benzamide] were 875 nM and over 10000 nM.
As for `COc1cccc(OC)c1C(=O)N[C@H]1CCC[C@@H]1Oc1cc(C(F)(F)F)ccn1` [Example 21, 2,6-Dimethoxy-N-[(1S,2S)-2-{[4-(trifluoromethyl)pyridin-2-yl]oxy}cyclopentyl]benzamide], the IC50 in assay [1] worked out at 576 nM; in assay [2], 6420 nM.
Consider `O=C(NC1CCCC1Cc1cc(C(F)(F)F)ccn1)c1ccccc1-n1nccn1` (stereo not drawn) [Example 22, 2-(2H-1,2,3-Triazol-2-yl)-N-(2-{[4-(trifluoromethyl)pyridin-2-yl]methyl}cyclopentyl)benzamide], for which the figures for the IC50 in assay [1] and in assay [2] were 665 nM and 6160 nM, respectively.
Taken in the same sequence, the figures for `O=C(NC1CCCC1Cc1ccc(C(F)(F)F)cn1)c1ccccc1-n1nccn1` (stereo not drawn) [Example 24, 2-(2H-1,2,3-Triazol-2-yl)-N-(2-{[5-(trifluoromethyl)pyridin-2-yl]methyl}cyclopentyl)benzamide] were 766 nM and over 10000 nM.
